From patent US20180218112A1, “MOLECULAR BASED DECISION SUPPORT SYSTEM FOR CANCER TREATMENT” (priority 2014, published 2018)

What was measured:
[1] = Efficacy estimators of treatment alternatives reported in clinical trial studies; format: in vivo, patients; settings: for NRS: Non Response Survival, NRS=RS−RTD; for RS: Response Survival, RS=OS+(1−CBR)·RTD; for RTD* months: duration of clinical benefit, from TTP or PFS and graphical KM considerations
Excerpt: Usually, in oncological studies we distinguish three reactions to a treatment well defined as their proportions are called: […]
ORR (Objective Response Rate which includes Partial Response and Complete Response) based on a percentage reduction of the tumor, PD (Progressive Disease) based on a percentage increase of the tumor and SD (Stable Disease) in which there is neither sufficient shrinkage to qualify for response, nor sufficient increase to qualify for progression.
Their proportion equals to ORR+SD and is called CBR (Clinical Benefit Rate).
OS (Overall Survival) is the median time from the treatment to death/loss of follow up.
RS (Response Survival) is the median time from response to death/loss of follow up in the responders group.
NRS (Non Response Survival) is the median time from the treatment to death/loss of follow up in the non-responders group.
The PFS (Progression Free Survival) or TTP (Time To Progression) is the median time from the treatment to the progression of the disease.
In the best case the DCB (Duration of Clinical Benefit) is also reported, which is the PFS of the participants defined like CBR.

[2] = cited from earlier work; for P(Ω+|Λ+): probability the treatment works given the marker exists, from clinico-molecular studies
[3] = clinical trial study population, cited from earlier work; for CBR %: Clinical Benefit Rate (ORR+SD); for OS months: median overall survival; for RR %: response rate
[4] = Molecular Prediction of Response (MPR) for patient X; settings: for CBR/P(Λ+): Bayesian estimation of P(Ω+|Λ+); for MPR: final Molecular Prediction of Response, patient X; for CBR + α · sd(CBR): heuristic estimate of P(Ω+|Λ+), MPR.QI=1
Excerpt: Now, the MPR (Molecular Prediction of Response) is based on molecular results of the tumor lab analysis like the following:
At first, we attribute to the patient a “qualitative MPR”: MPR·QI in {−1, 0, 1}
If we don't know about any molecular markers that can predict a clinical response, than: MPR·QI=0
If the molecular analysis predicts no clinical response: MPR·QI=−1, and if the molecular analysis predicts some clinical response (including stable disease) MPR·QI=1.
MPR·QI=−1=>we admit in a deterministic way that MPR=0+sd(CBR)
MPR·QI=1=>we distinguish 3 cases.
Λ−⇒Ω− (or Ω+⇒Λ+) • In the best case if the article gives P(Ω+|Λ+) we use it. • If we have relevant knowledge on P(Λ+) we use a Bayesian estimation
P(Ω+|Λ+)=CBR+α·sd(RR) (2.7)
where α=3 for chemotherapy treatments and 2 for biological treatments.
The molecular predictions of the subject with the appropriated efficacy estimators or prevalence estimator from clinico-molecular and epidemiologic studies give the whole information that we need to obtain the final MPR.

[5] = Adjusted Efficiency Values (AEV), pooling/ranking algorithm and efficiency grades for patient X; settings: for subjOS: MPR·RS if MPR.QI=1 or MPR·NRS if MPR.QI=−1, table of three AEV by treatment name; for eff.OS: effOS=MPR·RS+(1−MPR)·NRS; for ART (pooled treatment group): sample-size weighted mean ART of the pooled treatments of the line, algorithm steps 1-6
Excerpt: At each step, we also calculate AEG (Adjusted Efficiency Grades) with its standard-error:
AEG is a vector of grades such that to the higher AEV component the equivalent AEG component is 10 and to the lower AEV component the equivalent AEG component is 1.
At each step j, 1≤j≤k−2, we represent two successive “old” treatments (or treatment groups) which bear some different efficiency values in the j−1 step, in one “new” treatment efficiency vales in the j step. This representation is described below (we refer to it by noting that we “pull” treatments' efficiencies and represent it as a different efficiency value): • We are pooling (AEV(l(j−1))^(j−1), AEV(l(j−1)+1)^(j−1)) as if both treatments were a single treatment with an “average Adjusted Efficiency Value”: AEV(l(j−1))^(j−1)
We retain also initial AEG and final AEG (the last step which is “necessary”). But to finally give the Total Efficiency Score (TES) we use the AEG^(J):
TES=0.5×AEGART^(J)+0.45×AEGeffOS^(J)+0.05×AEGsubjOS^(J) which is a vector for k−J treatments groups.
The three AEV are finally: the RTD adjusted or ART=RTD·MPR, the effOS and a subjective OS (we choose explicitly in which group the patient is) i.e.
From RTD (table 2), MPR (table 4), RS and NRS (table 3) we get our three AEV by
ART=MPR·RTD; effOS=MPR·RS+(1−MPR)·NRS;
subjOS=MPR·RS if MPR·QI=1 or MPR·NRS if MPR·QI=−1.
The alternatives (designated here by their references) are ordered by ascending ART, and CLR are computed
The ART are projected on the grade interval (1,10) and we get:
After the 3 algorithms are done we can summarize 3 grades for each alternative and the final grade is the weighted mean of them (The weights are 0.5 for ART, 0.45 for effOS and 0.05 for subjOS when available)

[6] = ART=MPR·RTD, table of three AEV by treatment name
[7] = by treatment reference number, ordered ascending, algorithm steps 0-3
[8] = table of three AEV by treatment name

Compound	NRS [1] [months]	RS [1] [months]	RTD* months [1] [months]	P(Ω+|Λ+) [2]	CBR % [3] [%]	OS months [3] [months]	RR % [3] [%]	CBR/P(Λ+) [4]	MPR [4]	CBR + α · sd(CBR) [4]	ART [5, 6]	subjOS [5]	ART [5, 7]	eff.OS [5, 8]	ART (pooled treatment group) ([5]; listed as 2)	ART (pooled treatment group) ([5]; listed as 1, step 2, pooled treatments 3 and 1)	ART (pooled treatment group) ([5]; listed as 1, step 3, pooled treatments 3, 1 and 6)	CBR ([2]; printed in column CBR + α · sd(CBR), MPR.QI=0)	ART (pooled treatment group) ([5]; listed as 4)
CN(C)/N=N/c1[nH]cnc1C(N)=O [Dacarbasine]	7.21	9.12	1.9	44	15	7.5	3	24.42	44	23.66	0.779	4.011	0.836	6.4	0.7858				
Cc1nc2ccc(CN(C)c3ccc(C(=O)N[C@@H](CCC(=O)O)C(=O)O)s3)cc2c(=O)[nH]1 [Raltitrexed]	6.68	11.48	4.8	50	15	7.4	0	31.01	50	30.97		3.841	2.4	6.288		2.275	2.387		
CNC(=O)c1cc(Oc2ccc(NC(=O)Nc3ccc(Cl)c(C(F)(F)F)c3)c(F)c2)ccn1 [Regorafenib]	5.62	7.52	1.9		41	6.4	1		41		0.971		0.779	7.335				41 (CBR)	0.7858
CO[C@H]1C[C@@H]2CC[C@@H](C)[C@@](O)(O2)C(=O)C(=O)N2CCCC[C@H]2C(=O)O[C@H]([C@H](C)C[C@@H]2CC[C@@H](OCCO)[C@H](OC)C2)CC(=O)[C@H](C)/C=C(\C)[C@@H](O)[C@@H](OC)C(=O)[C@H](C)C[C@H](C)/C=C/C=C/C=C/1C [Everolimus]	5.32	7.12	1.8		32.4	5.9	0	53.97	53.97	49.06	2.4	9.077	0.971	11.03					
O=C1NC(=O)[C@@H](c2cn3c4c(cccc24)CCC3)[C@@H]1c1c[nH]c2ccccc12 [Tivantinib]	5.99	8.69	2.7																
CN(C)C/C=C/C(=O)Nc1cc2c(Nc3ccc(F)c(Cl)c3)ncnc2cc1O[C@H]1CCOC1 [Afatinib]	12.54	16.07	3.5																
